According to the supplement of paper PMC10307832:

Tests used:
Test in all cases: relative viability (nuclei count vs DMSO), 5 days (fraction); higher = more cells survive
Bexarotene + Vorinostat = compound: C=C(c1ccc(C(=O)O)cc1)c1cc2c(cc1C)C(C)(C)CCC2(C)C [Bexarotene] + O=C(CCCCCCC(=O)Nc1ccccc1)NO [Vorinostat] (partner 1 µM)
In short: (§1)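 Nuclei were stained with Hoechst during a one-step fixation (final 0.05% Triton X-100, 1% formaldehyde, 1 ug/ml Hoechst) carried out 5 days after dosing, then counted on 4× images. The cells, lung cancer lines in 1536-well plates, had been dosed by pin tool the day after seeding with one drug alone or a fixed anchor-drug dose plus five library-drug doses (not always all listed) in √10 steps. Relative viability is the nuclei count in treated wells divided by that in vehicle wells, and each value is the median of duplicate plates.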

Bexarotene + Crizotinib = compound: C=C(c1ccc(C(=O)O)cc1)c1cc2c(cc1C)C(C)(C)CCC2(C)C [Bexarotene] + C[C@@H](Oc1cc(-c2cnn(C3CCNCC3)c2)cnc1N)c1c(Cl)ccc(F)c1Cl [Crizotinib] (partner 1 µM)
In short: as §1

Bexarotene + Tozasertib = compound: C=C(c1ccc(C(=O)O)cc1)c1cc2c(cc1C)C(C)(C)CCC2(C)C [Bexarotene] + Cc1cc(Nc2cc(N3CCN(C)CC3)nc(Sc3ccc(NC(=O)C4CC4)cc3)n2)n[nH]1 [Tozasertib] (partner 0.1 µM)
In short: as §1

Bexarotene + Navitoclax = compound: C=C(c1ccc(C(=O)O)cc1)c1cc2c(cc1C)C(C)(C)CCC2(C)C [Bexarotene] + CC1(C)CCC(c2ccc(Cl)cc2)=C(CN2CCN(c3ccc(C(=O)NS(=O)(=O)c4ccc(N[C@H](CCN5CCOCC5)CSc5ccccc5)c(S(=O)(=O)C(F)(F)F)c4)cc3)CC2)C1 [Navitoclax] (partner 0.5 µM)
In short: as §1

Cell Line	relative viability (Bexarotene + Vorinostat; first compound 0.08 µM)	relative viability (Bexarotene + Vorinostat; first compound 0.253 µM)	relative viability (Bexarotene + Vorinostat; first compound 2.53 µM)	relative viability (Bexarotene + Vorinostat; first compound 8 µM)	relative viability (Bexarotene + Crizotinib; first compound 0.08 µM)	relative viability (Bexarotene + Crizotinib; first compound 0.253 µM)	relative viability (Bexarotene + Crizotinib; first compound 2.53 µM)	relative viability (Bexarotene + Crizotinib; first compound 8 µM)	relative viability (Bexarotene + Tozasertib; first compound 0.08 µM)	relative viability (Bexarotene + Tozasertib; first compound 0.253 µM)	relative viability (Bexarotene + Tozasertib; first compound 2.53 µM)	relative viability (Bexarotene + Tozasertib; first compound 8 µM)	relative viability (Bexarotene + Navitoclax; first compound 0.08 µM)	relative viability (Bexarotene + Navitoclax; first compound 0.253 µM)	relative viability (Bexarotene + Navitoclax; first compound 2.53 µM)	relative viability (Bexarotene + Navitoclax; first compound 8 µM)	relative viability (Bexarotene + Vorinostat; first compound 0.8 µM)	relative viability (Bexarotene + Crizotinib; first compound 0.8 µM)	relative viability (Bexarotene + Tozasertib; first compound 0.8 µM)	relative viability (Bexarotene + Navitoclax; first compound 0.8 µM)
SK-LU-1	0.924	0.866	0.734	0.672	0.926	1.06	0.896	0.717	0.284	0.346	0.358	0.321	1.1	0.845	0.645	1.09	–	–	–	–
NCI-H441	0.679	0.805	0.716	0.547	0.742	0.708	0.635	0.738	0.709	0.758	0.676	0.656	0.845	0.747	–	0.541	0.628	0.94	0.631	1.02
SK-MES-1	1.2	1.28	1.06	0.936	0.995	1.06	1.04	0.925	0.907	0.95	0.832	0.573	1.47	1.2	1.33	1.09	1.11	1.01	0.784	1.25
NCI-H1355	0.672	0.724	0.604	0.619	1.14	1.11	1.14	1.13	0.492	0.531	0.492	0.512	1.03	0.998	1.17	0.84	0.584	1.03	0.54	0.928
SW 1573	0.918	0.645	0.635	0.746	0.764	0.82	0.684	0.552	0.219	0.171	0.162	0.224	1.07	0.777	0.735	0.598	1.11	0.688	0.251	0.731
NCI-H2347	0.703	0.622	0.681	0.557	0.671	0.773	0.765	0.674	0.625	0.668	0.585	0.623	0.971	0.846	0.793	0.783	0.513	0.597	–	0.63
LCLC-97TM1	1.02	0.804	0.656	0.678	0.478	0.343	0.409	0.472	0.251	0.192	0.189	0.221	0.459	0.4	0.427	0.381	0.586	0.576	0.206	0.413
EMC-BAC-2	0.628	0.462	–	0.522	0.742	0.806	0.706	0.667	0.311	0.315	0.277	0.283	1.26	1.27	1.31	1.15	0.537	0.633	0.274	1.09
NCI-H1975	0.884	0.758	0.754	0.795	1.01	1.02	1.08	1.11	0.809	0.875	0.73	0.879	1.29	1.19	1.22	1.09	0.725	1.05	0.846	1.3
BEN	0.685	0.583	0.531	0.547	0.786	0.737	0.708	0.662	0.462	0.475	0.444	0.493	0.083	0.0587	0.0608	0.0559	0.531	0.768	0.499	0.063
NCI-H23	0.715	0.782	0.453	0.541	0.534	0.561	0.647	0.529	0.383	0.619	0.287	0.333	1.01	0.96	0.923	0.729	0.599	0.514	0.365	0.853
NCI-H520	0.781	0.695	0.775	0.716	0.989	0.735	0.775	0.659	0.409	0.454	0.417	0.382	1.14	1.11	1.14	0.993	0.778	0.649	0.411	1.03
